By DC50 is commonly meant the midpoint of the concentration-degradation curve. The Dmax is the largest share of the target that was removed.

Experiment [1] has as its system EGFR-Del19/T790M/C797S. The experiment in a line: EGFR degradation HTRF assay in H1975-clone #28 cells. The experiment is classed as cell-based. The settings on record: H1975-clone #28 (Del19/T790M/C797S) cells, 16 h treatment; for DC50: IC50 (DC50), read-out: DC50(nM) H1975 # 28 DTC; for Dmax (%) H1975 # 28 DTC: maximum percentage of inhibition (degradation). The protocol: (§1) H1975-clone #28(Del19/T790M/C797S) and H1975-clone #25(L858R/T790M/C797S). EGFR-Del19/T790M/C797S and EGFR-L858R/T790M/C797S were stably expressed in H1975 cell lines by lentivirus-mediated over-expression, respectively. The EGFR over-expressed cells then underwent knockout, in which the EGFR targeting sgRNA was designed to only target the endogenous EGFR copies and preserve the exogenous EGFR copies. Followed by knockout, the edited H1975 cells were seeded in 96 well plates at the concentration of […], cultured for about 2 weeks to allow single clones formation. The formed clones were screened by DNA sequencing and whole exon sequencing analysis for the desired edition.
(§2) H1975-clone #28, and H1975-clone #25 were finally confirmed as homozygous Del19/T790M/C797S EGFR, and L858R/T790M/C797S EGFR clones, respectively.
(§3) H1975-#25 and H1975-#28 cells are treated with compounds diluted in 0.2% DMSO cell culture medium on day 2, incubate for 16 h, 37° C., 5% CO2. the final concentration of compounds in all assay is start with 10 uM, 5-fold dilution, total 8 doses were included.
(§4) After 16 h treatment, add HTRF lysis buffer to each well; seal the plate and incubate 1 hour at room temperature on a plate shaker; Once the cells are lysed, 16 μL of cell lysate are transferred to a PE 384-well HTRF detection plate; 4 μL of pre-mixed HTRF antibodies are added to each well; Cover the plate with a plate sealer, spin 1000 rpm for 1 min, Incubate overnight at room temperature; Read on BMG PheraStar with HTRF protocol (337 nm-665 nm-620 nm).
(§5) The inhibition (degradation) percentage of the compound was calculated by the following equation:
(§6) Inhibition percentage of Compound=100−100×(Signal−low control)/(High control−low control),
(§7) The IC50 (DC50) value of a compound can be obtained by fitting the following equation
(§8) Wherein, X and Y are known values, and IC50, Hillslope, Top and Bottom are the parameters obtained by fitting with software. Y is the inhibition percentage (calculated from the equation), X is the concentration of the compound; IC50 is the concentration of the compound when the 50% inhibition is reached. The smaller the IC50 value is, the stronger the inhibitory ability of the compound is. Vice versa, the higher the IC50 value is, the weaker the ability the inhibitory ability of the compound is; Hillslope represents the slope of the fitted curve, generally around 1 *; Bottom represents the minimum value of the curve obtained by data fitting, which is generally 0%±20%; Top represents the maximum value of the curve obtained by data fitting, which is generally 100%±20%. The experimental data were fitted by calculating and analyzing with Dotmatics data analysis software.
(In general: Time-resolved FRET reads energy transfer from a long-lived donor to a nearby acceptor.)

Experiment [2] addresses T1, EGFR-L858R/T790M/C797S (Homo sapiens, UniProt P00533, C797S/L858R/T790M).
T1 construct: expressed in transfected cells; host or cells: H1975-clone #25 (lentiviral over-expression, endogenous EGFR knocked out)
The experiment in a line: EGFR degradation HTRF assay in H1975-clone #25 cells. The experiment is classed as cell-based. The conditions noted are these: 16 h treatment; for DC50: H1975-clone #25 (L858R/T790M/C797S) cells, IC50 (DC50), read-out: DC50(nM) H1975 # 25-LTC; for Dmax: NCI-H1975, H1975-clone #25 (L858R/T790M/C797S) cells, maximum percentage of inhibition (degradation), read-out: Dmax (%) H1975 # 25-LTC. The protocol: as §1, §2, §3, §4, §5, §6, §7, §8

T1 sequence (P00533 25-1210 T790M/C797S/L858R): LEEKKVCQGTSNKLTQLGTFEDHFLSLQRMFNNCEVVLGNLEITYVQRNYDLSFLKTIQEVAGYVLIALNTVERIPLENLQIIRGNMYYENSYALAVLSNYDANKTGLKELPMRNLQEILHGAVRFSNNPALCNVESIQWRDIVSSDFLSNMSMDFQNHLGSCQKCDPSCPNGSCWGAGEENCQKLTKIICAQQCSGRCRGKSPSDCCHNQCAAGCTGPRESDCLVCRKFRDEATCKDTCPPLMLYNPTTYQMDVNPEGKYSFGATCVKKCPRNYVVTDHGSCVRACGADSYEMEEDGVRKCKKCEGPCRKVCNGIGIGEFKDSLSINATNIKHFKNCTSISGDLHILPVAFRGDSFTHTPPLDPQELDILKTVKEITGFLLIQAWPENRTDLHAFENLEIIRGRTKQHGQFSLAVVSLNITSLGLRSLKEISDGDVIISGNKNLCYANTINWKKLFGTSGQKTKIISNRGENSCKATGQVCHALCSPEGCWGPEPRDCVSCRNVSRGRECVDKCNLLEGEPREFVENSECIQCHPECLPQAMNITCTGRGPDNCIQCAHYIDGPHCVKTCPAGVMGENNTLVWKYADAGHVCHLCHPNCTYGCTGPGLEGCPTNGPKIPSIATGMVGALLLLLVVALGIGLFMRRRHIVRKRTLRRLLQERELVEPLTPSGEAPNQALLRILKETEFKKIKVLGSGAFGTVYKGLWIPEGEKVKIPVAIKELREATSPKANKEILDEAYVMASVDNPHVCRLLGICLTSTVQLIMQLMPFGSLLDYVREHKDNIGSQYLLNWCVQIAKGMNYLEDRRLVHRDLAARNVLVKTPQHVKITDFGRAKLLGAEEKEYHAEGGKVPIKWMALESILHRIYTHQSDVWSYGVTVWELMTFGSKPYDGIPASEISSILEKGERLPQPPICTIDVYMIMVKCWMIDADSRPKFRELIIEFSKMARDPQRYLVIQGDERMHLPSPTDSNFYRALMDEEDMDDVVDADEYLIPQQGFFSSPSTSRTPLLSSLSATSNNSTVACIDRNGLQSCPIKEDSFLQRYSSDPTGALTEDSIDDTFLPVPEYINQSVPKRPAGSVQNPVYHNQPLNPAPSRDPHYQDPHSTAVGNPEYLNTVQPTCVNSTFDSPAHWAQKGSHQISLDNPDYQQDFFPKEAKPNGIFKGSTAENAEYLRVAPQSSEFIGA

For `CCc1cc(Nc2ncc(Br)c(Nc3ccc4nc(C)c(F)cc4c3P(C)(C)=O)n2)c(OC)cc1N1CC2(C1)CN(C1CCN(c3cc(F)c([C@H]4CCC(=O)NC4=O)c(F)c3)CC1)C2` [Example 64, (R)-3-(4-(4-(6-(4-((5-bromo-4-((5-(dimethylphosphoryl)-3-fluoro-2-methylquinolin-6-yl)amino)pyrimidin-2-yl)amino)-2-ethyl-5-methoxyphenyl)-2,6-diazaspiro[3.3]heptan-2-yl)piperidin-1-yl)-2,6-difluorophenyl)piperidine-2,6-dione], in experiment [1], the DC50 was determined as 1.1 nM and the “Dmax (%) H1975 # 28 DTC” value came to 94%. Further, in experiment [2], the DC50 was 1.5 nM and the Dmax was 95%.

In the case of `CCc1ccc2c(P(C)(C)=O)c(Nc3nc(Nc4cc(CC)c(N5CCC(N6CCC(N7CC(c8cccc9c8n(C)c(=O)n9C8CCC(=O)NC8=O)C7)CC6)CC5)cc4OC)ncc3Br)ccc2n1` (centres unmarked) [Example 63, 3-(4-(1-(1′-(4-((5-bromo-4-((5-(dimethylphosphoryl)-2-ethylquinolin-6-yl)amino)pyrimidin-2-yl)amino)-2-ethyl-5-methoxyphenyl)-[1,4′-bipiperidin]-4-yl)azetidin-3-yl)-3-methyl-2-oxo-2,3-dihydro-1H-benzo[d]imidazol-1-yl)piperidine-2,6-dione], in experiment [1], the DC50 stood at 4.7 nM and the “Dmax (%) H1975 # 28 DTC” value was 74%. Further, in experiment [2], the DC50 turned out to be 2.7 nM and the Dmax is 77%.

On to `CCc1cc(Nc2ncc(Br)c(Nc3ccc4nc(C)c(F)cc4c3P(C)(C)=O)n2)c(OC)cc1N1CCC2(CCN(CCc3cc(F)c([C@H]4CCC(=O)NC4=O)c(F)c3)CC2)CC1` [Example 6, (R)-3-(4-(2-(9-(4-((5-bromo-4-((5-(dimethylphosphoryl)-3-fluoro-2-methylquinolin-6-yl)amino)pyrimidin-2-yl)amino)-2-ethyl-5-methoxyphenyl)-3,9-diazaspiro[5.5]undecan-3-yl)ethyl)-2,6-difluorophenyl)piperidine-2,6-dione], for which, in experiment [1], the half-maximal degradation concentration (DC50) is 3.1 nM and the “Dmax (%) H1975 # 28 DTC” value is recorded as 80%. In experiment [2], the DC50 came out at 9 nM and the Dmax worked out at 89%.

Consider `CCc1cc(Nc2ncc(Br)c(Nc3ccc4nc(C)c(F)cc4c3P(C)(C)=O)n2)c(OC)cc1N1CCC2(CCN(CC3CCN(c4cc5c(cc4F)C(=O)N(C4CCC(=O)NC4=O)C5=O)CC3)CC2)CC1` (centres unmarked) [Example 47, 5-(4-((9-(4-((5-bromo-4-((5-(dimethylphosphoryl)-3-fluoro-2-methylquinolin-6-yl)amino)pyrimidin-2-yl)amino)-2-ethyl-5-methoxyphenyl)-3,9-diazaspiro[5.5]undecan-3-yl)methyl)piperidin-1-yl)-2-(2,6-dioxopiperidin-3-yl)-6-fluoroisoindoline-1,3-dione], for which, in experiment [1], the DC50 amounted to 14.3 nM and the “Dmax (%) H1975 # 28 DTC” value was determined as 73%. Also, in experiment [2], the DC50 is 16 nM and the Dmax is 88%.

With `CCc1ccc2c(P(C)(C)=O)c(Nc3nc(Nc4cc(CC)c(N5CCC(N6CCN(C7CCN(c8cc(F)c([C@H]9CCC(=O)NC9=O)c(F)c8)CC7)CC6)CC5)cc4OC)ncc3Br)ccc2n1` (single isomer, unassigned) [Example 10], in experiment [1], the DC50 was 2.7 nM and the “Dmax (%) H1975 # 28 DTC” value is 88%. Also, in experiment [2], the DC50 was found to be 4.9 nM and the Dmax worked out at 91%.

Turning to `CCOc1cc(N2CCC(N3CCC4(CC3)CN(c3cc(F)c([C@H]5CCC(=O)NC5=O)c(F)c3)C4)CC2)c(CC)cc1Nc1ncc(Br)c(Nc2ccc3nc(CC)ncc3c2P(C)(C)=O)n1` (single isomer, unassigned) [Example 19], in experiment [1], the DC50 is 1.1 nM and the “Dmax (%) H1975 # 28 DTC” value was determined as 91%. For the same molecule, in experiment [2], the DC50 came out at 1.9 nM and the Dmax came to 93%.

With `CCc1cc(Nc2ncc(Br)c(Nc3ccc4nc(C)c(F)cc4c3P(C)(C)=O)n2)c(OC)cc1N1CCC(N2CCN(C3CN(c4cc(F)c([C@H]5CCC(=O)NC5=O)c(F)c4)C3)CC2)CC1` [Example 8, (R)-3-(4-(3-(4-(1-(4-((5-bromo-4-((5-(dimethylphosphoryl)-3-fluoro-2-methylquinolin-6-yl)amino)pyrimidin-2-yl)amino)-2-ethyl-5-methoxyphenyl)piperidin-4-yl)piperazin-1-yl)azetidin-1-yl)-2,6-difluorophenyl)piperidine-2,6-dione], in experiment [1], the DC50 stood at 0.6 nM and the “Dmax (%) H1975 # 28 DTC” value is on record as 80%. For the same molecule, in experiment [2], the DC50 was 1.6 nM and the Dmax amounted to 87%.

Turning to `CCc1ccc2c(P(C)(C)=O)c(Nc3nc(Nc4cc(C)c(N5CCC6(CCN(CCc7cccc8c7n(C)c(=O)n8C7CCC(=O)NC7=O)CC6)CC5)cc4OC)ncc3Br)ccc2n1` (centres unmarked) [Example 68, 3-(4-(2-(9-(4-((5-bromo-4-((5-(dimethylphosphoryl)-2-ethylquinolin-6-yl)amino)pyrimidin-2-yl)amino)-5-methoxy-2-methylphenyl)-3,9-diazaspiro[5.5]undecan-3-yl)ethyl)-3-methyl-2-oxo-2,3-dihydro-1H-benzol[d]imidazol-1-yl)piperidine-2,6-dione], in experiment [1], the DC50 was found to be 2.2 nM and the “Dmax (%) H1975 # 28 DTC” value was 82%. In experiment [2], the DC50 came out at 3.1 nM and the Dmax came out at 81%.

With `COc1cc(N2CCC3(CC2)CCN(C2CCN(c4cc(F)c([C@H]5CCC(=O)NC5=O)c(F)c4)CC2)CC3)c(C)cc1Nc1ncc(Br)c(Nc2ccc3nccnc3c2P(C)(C)=O)n1` [Example 36, (R)-3-(4-(4-(9-(4-((5-bromo-4-((5-(dimethylphosphoryl)quinoxalin-6-yl)amino)pyrimidin-2-yl)amino)-5-methoxy-2-methylphenyl)-3,9-diazaspiro [5.5]undecan-3-yl)piperidin-1-yl)-2,6-difluorophenyl)piperidine-2,6-dione], in experiment [1], the DC50 was 3.1 nM and the “Dmax (%) H1975 # 28 DTC” value came out at 93%. Besides, in experiment [2], the DC50 worked out at 4.5 nM and the Dmax is 94%.

As to `COc1cc(N2CCC3(CCN(CC4CCN(c5ccc6c(c5)CN(C5CCC(=O)NC5=O)C6=O)CC4)CC3)CC2)c(C)cc1Nc1ncc(Br)c(Nc2ccc3nc(C)ccc3c2P(C)(C)=O)n1` (centres unmarked) [Example 72, 3-(5-(4-((9-(4-((5-bromo-4-((5-(dimethylphosphoryl)-2-methylquinolin-6-yl)amino)pyrimidin-2-yl)amino)-5-methoxy-2-methylphenyl)-3,9-diazaspiro[5.5]undecan-3-yl)methyl)piperidin-1-yl)-1-oxoisoindolin-2-yl)piperidine-2,6-dione], in experiment [1], the DC50 was found to be 1.8 nM and the “Dmax (%) H1975 # 28 DTC” value was determined as 82%. Moreover, in experiment [2], the DC50 is 2 nM and the Dmax was found to be 82%.

As for `CCc1ncc2c(P(C)(C)=O)c(Nc3nc(Nc4cc(CC)c(N5CCC6(CC5)CCN(C5CCN(c7cc(F)c([C@H]8CCC(=O)NC8=O)c(F)c7)CC5)CC6)cc4OC)ncc3Br)ccc2n1` [Example 3, (R)-3-(4-(4-(9-(4-((5-bromo-4-((5-(dimethylphosphoryl)-2-ethylquinazolin-6-yl)amino)pyrimidin-2-yl)amino)-2-ethyl-5-methoxyphenyl)-3,9-diazaspiro[5.5]undecan-3-yl)piperidin-1-yl)-2,6-difluorophenyl)piperidine-2,6-dione], in experiment [1], the DC50 came out at 1.9 nM and the “Dmax (%) H1975 # 28 DTC” value stood at 91%. Besides, in experiment [2], the DC50 worked out at 2.8 nM and the Dmax was 95%.

The values above are taken from patent US20240368203A1, “DEGRADATION OF (EGFR) BY CONJUGATION OF EGFR INHIBITORS WITH E3 LIGASE LIGAND AND METHODS OF USE” (BeiGene, Ltd., priority 2022, published 2024).
